Patent US20160338967A1, “SUSTAINED RELEASE DEPOT FORMULATIONS OF T[…], AND USES THEREOF” (Kineta One, LLC, priority 2013, published 2016)

Assays:
[1] = In vivo dose response/release of ShK-186 formulated with PLG2A, blood ELISA (Example 5); design: species or system Sprague Dawley rats
Description: In vivo dose response of depot formulations using ShK-186 and ShK-192 with PLG2A. Preparation of depot formulations was performed as follows: 1.0 g of PLG2A was dissolved into 5.0 mL dichloromethane with mechanical stirring until the polymer was completely dissolved. A volume of 500 μL including three levels of ShK-186 (40, 20, and 10 mg/mL final concentration; in a 20 mM sodium phosphate aqueous buffer (pH 6.0) with 140 mM NaCl) was added separately into three separate PLG2A preparations and homogenized for 2 minutes with a 10×195 mm probe (26,000 rpm). The w/o emulsion was then poured into a 100 mL Pyrex® 1395 media bottle charged with 20 mL of 0.5% w/w DSS, and 20 mM phosphate (pH 7.0) water solution. The mixture was homogenized for 5 minutes at the same shear setting (26,000 rpm), with the beaker in thermal contact with melting ice (0° C.). The pH of the aqueous (external) phase was verified and adjusted if necessary to 5.0<pH<7.5.
The formulation was then removed from shear, and stirred overnight at room temperature in a fume hood to allow solvent evaporation. The next morning the suspension was filtered through a 325 mesh screen and stored at room temperature with end over end mixing to avoid settling/clumping. Immediately before use by injection, the formulations were centrifuged utilizing the appropriate volume for 8 min, 4° C. at 2,000 g. The solid particles settled to the bottom, allowing for decanting of the almost clear supernatant, followed by replacement of aqueous solution with an appropriate volume and composition (e.g. PBS), followed by mechanical mixing to resuspend the particles.
Sprague Dawley rats (females, ages 8-16 weeks, n=3) were given a SC injection of 1 mL of the indicated depot formulations. Blood was drawn at various time points and assayed for ShK-186 by ELISA methods.
In a repeat experiment, the time during which blood levels of ShK-186 were monitored was extended.

[2] = tested on: delayed type hypersensitivity rat model; assay: Delayed type hypersensitivity rat model (ear induration); type: in vivo, Lewis rats; conditions: single injection of PLG depot formulation on day 0, 1,000-40,000 μg/kg; versus daily SC injection in buffer P6N
Description: Therapeutic efficacy of ShK-186 and ShK-192 depot formulations in animal models of autoimmune disease including the delayed type hypersensitivity rat model. Lewis rats are vaccinated by SC administration to the base of the tail with 100 μg ovalbumin mixed 1:1 (v/v) in Complete Freund's Adjuvant (CFA) (OVA/CFA, 200 μL volume) on day 0 using a 20 G×1% needle. Delayed-type hypersensitivity (DTH) is elicited in the ear on Day 7 by injection of 20 μg OVA in 10 μL to the pinna of the ear of isoflurane-anesthetized animals using 29 G×1 needles. DTH is evaluated on Days 8 and 9 by measuring the induration of the site of antigen injection with a micrometer (caliper). Control treatments with ShK-186 or ShK-192 include SC injections of ShK-186 or ShK-192 at 100 μg/kg, 10 μg/kg, 3 μg/kg or 1 μg/kg given on day 0-7 (daily from the initial immunization). The control treatments are compared to a single injection of a depot formulation of ShK-186 or ShK-192 using a PLG polymer-based (in one example, PLG2A) sustained formulations at a dose of 1,000 μg/kg, 5,000 μg/kg, 10,000 μg/kg, 20,000 μg/kg, or 40,000 μg/kg given on day 0 (time of immunization).

[3] = tested on: chronic relapsing/remitting autoimmune encephalomyelitis rat model; assay: Chronic relapsing/remitting autoimmune encephalomyelitis rat model (clinical scoring); type: in vivo, dark agouti rats; conditions: single injection of PLG2A depot formulation, 1,000-40,000 μg/kg; prevention and treatment models
Description: Therapeutic efficacy of ShK-186 and ShK-192 depot formulations in animal models of autoimmune disease including the chronic relapsing/remitting autoimmune encephalomyelitis rat model. Chronic relapsing/remitting autoimmune encephalomyelitis (CR-EAE) is induced by SC injection of spinal cord homogenate (Bioreclamation, Inc.) and CFA to dark agouti rats (Harlan). Animals typically recover by 30 days after onset of CR-EAE. Rats are treated with different amounts of ShK-186 or ShK-192 (1, 3, 5, 10, and 100 μg/kg) in SC injections daily, every two days, or every three days at different time points prior to and after elicitation of CR-EAE by immunization. These regimens are compared to single injection of depot formulations (ShK-186 or ShK-192 with PLG2A) at doses of 1,000 μg/kg, 5,000 μg/kg, 10,000 μg/kg, 20,000 μg/kg, or 40,000 μg/kg given at the beginning of the experiment (time immunization, prevention model) and after onset of disease, i.e., after a rat has a clinical score of 1 or greater (treatment model).
The efficacy of the treatments is measured by clinical scoring of the severity of CR-EAE in daily and depot formulation-treated rats. […] Subsets of rats are sacrificed at specific time points of the experiment to harvest tissues or to collect whole blood samples.

[4] = In vivo release of ShK-192 formulated with PLG2A, blood ELISA (Example 5); design: species or system Sprague-Dawley rats; conditions: PLG2A depot formulation, 10,000 μg/kg, single SC injection, n=3 (FIG. 7)
Description: The next part of this Example was performed to test formulation and in vivo release of ShK-192 over extended time durations. Similar to the methods used for ShK-186, 1.0 g of PLG2A was dissolved into 5.0 mL dichloromethane with mechanical stirring until the polymer was completely dissolved. A volume of 500 μL including a low dose of ShK-192 (10 mg/mL final concentration; in a 20 mM sodium phosphate aqueous buffer (pH 6.0) with 140 mM NaCl) was formulated by homogenizing for 2 minutes with a 10×195 mm probe (26,000 rpm). The w/o emulsion was then transferred into a 100 mL Pyrex® 1395 media bottle charged with 20 mL of 0.5% w/w DSS, 20 mM phosphate (pH 7.0), water solution.
The mixture was held in thermal contact with ice water (0° C.) and homogenized for 5 minutes at 26,000 rpm, with the final pH of the aqueous (external) phase verified and adjusted to 5.0<pH<7.5. The formulation was then removed from homogenization and mechanically stirred overnight at room temperature in a fume hood to permit solvent evaporation. The next day the suspension was first filtered through a 325 mesh screen, then stored at room temperature with end over end mixing to minimize settling/clumping. Immediately before in vivo use, the formulations were centrifuged utilizing the appropriate volume for 8 minutes, at 4° C. at 2,000 g. […]

| Substance | shape of in vivo release profiles across doses ([1]; 40,000, 20,000 and 10,000 μg/kg (FIG. 6)) | duration of sustained in vivo release ([1]; single SC dose (1 mL) 20,000 μg/kg, repeat experiment (FIG. 8)) | time blood serum levels are maintained ([1]; single SC injection, 40,000, 20,000 and 10,000 μg/kg, n=3 (FIG. 6)) | reduction of induration (inflammatory response) in DTH [2] | reduction in clinical scores of CR-EAE [3] | duration of release from depot formulation [4] | time of maximum concentration [4] [days] |
| --- | --- | --- | --- | --- | --- | --- | --- |
| (L-PhosphoTyr)-AEEAc-RSCIDTIPKSRCTAFQCKHSMKYRLSFCRKTCGTC-amide [ShK-186] | geometrically similar, but scaled by the area under the curve to the total dose | at least 56 days | more than 30 days | significant therapeutic effect | significant therapeutic effects |  |  |
| (Para-phosphono-Phe)-AEEAc-RSCIDTIPKSRCTAFQCKHS(Nle)KYRLSFCRKTCGTC-amide [ShK-192] |  |  |  | significant therapeutic effect | significant therapeutic effects | over 30 days | ~12 |
